# Like-named read-outs stand apart in the source and are kept apart here.
# Tested on: Myotonic Dystrophy 1 affected patient fibroblasts (Coriell GM04602; 1600 CTG repeats)
# Experiment: DM1 foci reduction assay (CAG10-Cy3 FISH, average foci per nucleus)
# Type: cell-based
# Settings: Homo sapiens, Fibroblast
# In short: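 DM1 patient fibroblasts (GM04602, 1600 CTG) treated 48 h at 37 °C, 8-point 1:3 dilutions from 3 μM top dose; wild-type GM07492 as control. PFA-fixed, ethanol-permeabilized cells hybridized overnight with 5 nM CAG10-Cy3 probe, DAPI-counterstained, imaged at 20× in 4 fields; average foci per nucleus per well.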
# [1] = DM1 fibroblasts, 48 h treatment, 8-point dose response, 3 μM top dose, read-out: Foci Reduction in Fibroblast EC50, 48 h
# [2] = 48 h, read-out: Foci Reduction in Fibroblast EC50, 48 h (nM)
Structure (SMILES),EC50 [1],EC50 [2]
CCN(c1cc(-c2ccc(CN3CCN(CCOCCOCCNC(=O)CCNC(=O)c4nc(NC(=O)c5cc(NC(=O)CCNC(=O)c6nc(NC(=O)CCCNC(=O)c7cc(NC(=O)c8nc(NC(=O)CCNC(=O)c9cc(NC(=O)c%10nccn%10C)cn9C)cn8C)cn7C)cn6C)cn5C)cn4C)CC3)cc2)cc(C(=O)NCc2c(C)cc(C)[nH]c2=O)c1C)C1CCOCC1 [Compound 165],> 500 nM,
CCN(CC)CCCC[C@H](NC(=O)[C@H](CC(C)C)NC(=O)[C@H](C)NC(=O)[C@H](Cc1ccccc1)NC(=O)c1ccc(C(C)(C)C)cc1)C(=O)N[C@@H](CO)C(=O)NCCNC(=O)CCNC(=O)c1nc(NC(=O)c2cc(NC(=O)CCNC(=O)c3nc(NC(=O)CCCNC(=O)c4cc(NC(=O)c5nc(NC(=O)CCNC(=O)c6cc(NC(=O)c7nccn7C)cn6C)cn5C)cn4C)cn3C)cn2C)cn1C [Compound 70],,< 100 nM
CCN(CC)CCCC[C@H](NC(=O)[C@H](CC(C)C)NC(=O)[C@H](C)NC(=O)[C@H](Cc1ccccc1)NC(=O)c1ccccc1C)C(=O)N[C@@H](CO)C(=O)NCCOCCOCCOCCOCCOCCNC(=O)c1cc(NC(=O)c2cc(NC(=O)c3nc(NC(=O)c4cc(NC(=O)[C@@H](N)CCNC(=O)c5nc(NC(=O)CCNC(=O)c6cc(NC(=O)c7nccn7C)cn6C)cn5C)cn4C)cn3C)cn2C)cn1C [Compound 89],,> 500 nM
CC(C)C[C@H](NC(=O)[C@H](C)NC(=O)[C@H](Cc1ccccc1)NC(=O)c1ccc(C(C)(C)C)cc1)C(=O)N[C@@H](CCCCN(C)C1CC2CCC1C2)C(=O)N[C@@H](CO)C(=O)NCCOCCOCCNC(=O)CCNC(=O)c1nc(NC(=O)c2cc(NC(=O)CCNC(=O)c3nc(NC(=O)CCCNC(=O)c4cc(NC(=O)c5nc(NC(=O)CCNC(=O)c6cc(NC(=O)c7nccn7C)cn6C)cn5C)cn4C)cn3C)cn2C)cn1C (stereo partly drawn) [Compound 77],,< 100 nM
CCN(CCN(C)CCOCCOCCOCCOCCOCCNC(=O)CCNC(=O)c1nc(NC(=O)c2cc(NC(=O)CCNC(=O)c3nc(NC(=O)CCCNC(=O)c4cc(NC(=O)c5nc(NC(=O)CCNC(=O)c6cc(NC(=O)c7nccn7C)cn6C)cn5C)cn4C)cn3C)cn2C)cn1C)C(=O)CNCc1cc(C(N)=O)ccn1 [Compound 163],> 500 nM,
CCN(CC)CCCCCC(=O)NCC(=O)NCCOCCOCCOCCOCCOCCNC(=O)CCNC(=O)c1nc(NC(=O)c2cc(NC(=O)CCNC(=O)c3nc(NC(=O)CCCNC(=O)c4cc(NC(=O)c5nc(NC(=O)CCNC(=O)c6cc(NC(=O)c7nccn7C)cn6C)cn5C)cn4C)cn3C)cn2C)cn1C [Compound 158],> 500 nM,
CN(C)[C@@H]1CN(C2CCc3cccc(F)c32)C[C@H]1c1ccc(N2CCN(C(=O)COCCOCCOCCOCCOCCNC(=O)CCNC(=O)c3nc(NC(=O)c4cc(NC(=O)CCNC(=O)c5nc(NC(=O)CCCNC(=O)c6cc(NC(=O)c7nc(NC(=O)CCNC(=O)c8cc(NC(=O)c9nccn9C)cn8C)cn7C)cn6C)cn5C)cn4C)cn3C)CC2)cc1 (stereo partly drawn) [Compound 174],> 500 nM,
CCN(CC)CCCC[C@H](NC(=O)CCCCOCCNC(=O)c1ccc(C(C)(C)C)cc1)C(=O)N[C@@H](CO)C(=O)NCCOCCOCCOCCOCCOCCNC(=O)CCNC(=O)c1nc(NC(=O)c2cc(NC(=O)CCNC(=O)c3nc(NC(=O)CCCNC(=O)c4cc(NC(=O)c5nc(NC(=O)CCNC(=O)c6cc(NC(=O)c7nccn7C)cn6C)cn5C)cn4C)cn3C)cn2C)cn1C [Compound 138],,100 to 500 nM
CCN(CC)CCCC[C@H](NC(=O)[C@H](CC(C)C)NC(=O)[C@H](C)NC(=O)[C@H](Cc1ccccc1)NC(=O)c1ccc(C(C)(C)C)cc1)C(=O)N[C@@H](CO)C(=O)NCCOCCNCC#CC#Cc1ccc(NC(=O)CCNC(=O)c2nc(NC(=O)c3cc(NC(=O)CCNC(=O)c4nc(NC(=O)CCCNC(=O)c5cc(NC(=O)c6nc(NC(=O)CCNC(=O)c7cc(NC(=O)c8nccn8C)cn7C)cn6C)cn5C)cn4C)cn3C)cn2C)cc1 [Compound 98],,> 500 nM
Cn1cc(NC(=O)c2nc(NC(=O)CCNC(=O)c3cc(NC(=O)c4nccn4C)cn3C)cn2C)cc1C(=O)NCCCC(=O)Nc1cn(C)c(C(=O)NCCC(=O)Nc2cc(C(=O)Nc3cn(C)c(C(=O)NCCC(=O)NCCOCCOCCOCCOCCOCCOCCn4cc(CC(=O)Nc5ccc(C(=O)Nc6ccccc6N)cc5)nn4)n3)n(C)c2)n1 [Compound 124],> 500 nM,
Cc1nc(CCC(=O)NCCOCCOCCOCCOCCOCCNC(=O)CCNC(=O)c2nc(NC(=O)c3cc(NC(=O)CCNC(=O)c4nc(NC(=O)CCCNC(=O)c5cc(NC(=O)c6nc(NC(=O)CCNC(=O)c7cc(NC(=O)c8nccn8C)cn7C)cn6C)cn5C)cn4C)cn3C)cn2C)ccc1-c1cnc(NCc2c(F)ccc3c2CCO3)n2cnnc12 [Compound 62],> 500 nM,
CC(=O)c1cc(-c2ccccc2S(C)(=O)=O)c2cc(OCCOCCOCCOCCOCCOCCOCCOCCOCCOCCOCCNC(=O)CCNC(=O)c3nc(NC(=O)c4cc(NC(=O)CCNC(=O)c5nc(NC(=O)CCCNC(=O)c6cc(NC(=O)c7nc(NC(=O)CCNC(=O)c8cc(NC(=O)c9nccn9C)cn8C)cn7C)cn6C)cn5C)cn4C)cn3C)ccn12 [Compound 170],> 500 nM,
CCN(CC)CCCC[C@H](NC(=O)[C@H](CC(C)C)NC(=O)[C@H](C)NC(=O)[C@H](Cc1ccccc1)NC(=O)c1ccc(C(C)(C)C)cc1)C(=O)N[C@@H](CO)C(=O)NCCOCCOCCOCCOCCOCCNC(=O)c1cc(NC(=O)c2nc(NC(=O)c3cc(NC(=O)[C@H](CCNC(=O)c4nc(NC(=O)CCNC(=O)c5cc(NC(=O)c6nccn6C)cn5C)cn4C)NC(C)=O)cn3C)cn2C)cn1C [Compound 117],,> 500 nM
Cn1cc(NC(=O)c2nc(NC(=O)CCNC(=O)c3cc(NC(=O)c4nccn4C)cn3C)cn2C)cc1C(=O)NCCCC(=O)Nc1cn(C)c(C(=O)NCCC(=O)Nc2cc(C(=O)Nc3cn(C)c(C(=O)NCCC(=O)NCCOCCOCCn4cc(CC(=O)Nc5ccc(C(=O)Nc6ccccc6N)cc5)nn4)n3)n(C)c2)n1 [Compound 123],> 500 nM,
COc1c(OCCOCCOCCOCCOCCOCCNC(=O)CCNC(=O)c2nc(NC(=O)c3cc(NC(=O)CCNC(=O)c4nc(NC(=O)CCCNC(=O)c5cc(NC(=O)c6nc(NC(=O)CCNC(=O)c7cc(NC(=O)c8nccn8C)cn7C)cn6C)cn5C)cn4C)cn3C)cn2C)cccc1C(=O)N1CCN(C(=O)COc2cccc(OCCNC(=O)CNC(=O)c3ccc(C(C)(C)C)cc3)c2)CC1 [Compound 159],100 to 500 nM,
CCN(CC)CCCC[C@H](NC(=O)[C@H](CC(C)C)NC(=O)[C@H](C)NC(=O)[C@H](Cc1ccccc1)NC(=O)c1ccc(C(C)(C)C)cc1)C(=O)N[C@@H](CO)C(=O)NCCOCCOCCOCCOCCOCCNC(=O)c1nc(NC(=O)CCNC(=O)c2cc(NC(=O)c3nc(NC(=O)CCCNC(=O)c4nc(NC(=O)c5nc(CC(=O)CCNC(=O)c6cc(NC(=O)c7nccn7C)cn6C)cn5C)cn4C)cn3C)cn2C)cn1C [Compound 104],,> 500 nM
CCN(CC)CCCCC(NC(=O)[C@H](CC(C)C)NC(=O)C(C)NC(=O)[C@H](Cc1ccccc1)NC(=O)c1ccc(C(C)(C)C)cc1)C(=O)N[C@@H](CO)C(=O)NCCCN(C)CCCNC(=O)CCNC(=O)c1nc(NC(=O)c2cc(NC(=O)CCNC(=O)c3nc(NC(=O)CCCNC(=O)c4cc(NC(=O)c5nc(NC(=O)CCNC(=O)c6cc(NC(=O)c7nccn7C)cn6C)cn5C)cn4C)cn3C)cn2C)cn1C (stereo in doubt) [Compound 71],,> 500 nM
CCN(CC)CCCC[C@H](NC(=O)[C@H](CC(C)C)NC(=O)[C@H](C)NC(=O)[C@H](Cc1ccccc1)NC(=O)c1ccc(C(C)(C)C)cc1)C(=O)N[C@@H](CO)C(=O)NCCOCCOCCOCCOCCOCCNC(=O)CCNC(=O)c1nc(NC(=O)c2cc(NC(=O)CCNC(=O)c3nc(NC(=O)CCCNC(=O)c4cc(NC(=O)c5nc(NC(=O)CCNC(=O)c6cc(NC(=O)c7nccn7C)cn6C)cn5C)cn4C)cn3C)cn2C)cn1C [Compound 25],,100 to 500 nM
CC(C)CN(CCCC[C@H](NC(=O)COCCOCCNC(=O)c1ccc(C(C)(C)C)cc1)C(=O)N[C@@H](CO)C(=O)NCCOCCOCCOCCOCCOCCNC(=O)CCNC(=O)c1nc(NC(=O)c2cc(NC(=O)CCNC(=O)c3nc(NC(=O)CCCNC(=O)c4cc(NC(=O)c5nc(NC(=O)CCNC(=O)c6cc(NC(=O)c7nccn7C)cn6C)cn5C)cn4C)cn3C)cn2C)cn1C)C1CC2CCC1C2 (stereo partly drawn) [Compound 144],,< 100 nM
Cn1cc(NC(=O)c2nc(NC(=O)CCNC(=O)c3cc(NC(=O)c4nccn4C)cn3C)cn2C)cc1C(=O)NCCCC(=O)Nc1cn(C)c(C(=O)NCCC(=O)Nc2cc(C(=O)Nc3cn(C)c(C(=O)NCCC(=O)NCCOCCOCCn4cc(CCCCN(Cc5ccc(C(=O)NO)cc5)C(=O)Nc5ccccc5)nn4)n3)n(C)c2)n1 [Compound 125],> 500 nM,
CCN(CC)CCCC[C@H](NC(=O)[C@H](CC(C)C)NC(=O)[C@H](C)NC(=O)[C@H](Cc1ccccc1)NC(=O)c1ccc(C(C)(C)C)cc1)C(=O)N[C@@H](CO)C(=O)NCCOCCOCCOCCOCCOCCNC(=O)c1cc(NC(=O)c2cc(NC(=O)c3nc(NC(=O)c4cc(NC(=O)[C@@H](N)CCNC(=O)c5nc(NC(=O)c6cc(NC(=O)c7cc(NC(=O)c8nccn8C)cn7C)cn6C)cn5C)cn4C)cn3C)cn2C)cn1C [Compound 55],,> 500 nM
CN(C)[C@@H]1CN(C2CCc3cccc(F)c32)C[C@H]1c1ccc(N2CCN(S(=O)(=O)CCOCCOCCOCCOCCOCCNC(=O)CCNC(=O)c3nc(NC(=O)c4cc(NC(=O)CCNC(=O)c5nc(NC(=O)CCCNC(=O)c6cc(NC(=O)c7nc(NC(=O)CCNC(=O)c8cc(NC(=O)c9nccn9C)cn8C)cn7C)cn6C)cn5C)cn4C)cn3C)CC2)cc1 (stereo partly drawn) [Compound 175],100 to 500 nM,
CCN(CC)CCCC[C@H](NC(=O)[C@H](CC(C)C)NC(=O)[C@H](C)NC(=O)[C@H](Cc1ccccc1)NC(=O)c1ccc(C(C)(C)C)cc1)C(=O)N[C@@H](CO)C(=O)NCCOCCOCCNC(=O)c1cc(NC(=O)c2nc(NC(=O)c3cc(NC(=O)[C@@H](N)CCNC(=O)c4nc(NC(=O)c5cc(NC(=O)c6cc(NC(=O)c7nccn7C)cn6C)cn5C)cn4C)cn3C)cn2C)cn1C [Compound 79],,> 500 nM
CCN(CC)CCCC[C@H](NC(=O)CNC(=O)CNC(=O)CNC(=O)c1ccc(C(C)(C)C)cc1)C(=O)N[C@@H](CO)C(=O)NCCOCCOCCOCCOCCOCCNC(=O)CCNC(=O)c1nc(NC(=O)c2cc(NC(=O)CCNC(=O)c3nc(NC(=O)CCCNC(=O)c4cc(NC(=O)c5nc(NC(=O)CCNC(=O)c6cc(NC(=O)c7nccn7C)cn6C)cn5C)cn4C)cn3C)cn2C)cn1C [Compound 99],,< 100 nM

# — US20240166693A1, “METHODS AND COMPOUNDS FOR MODULATING MYOTONIC DYSTROPY 1” (Design Therapeutics, Inc., priority 2020, published 2024)
